Source: ChEMBL document CHEMBL5233217, “Modification of 7-piperazinylquinolone antibacterials to promising anticancer lead compounds: Synthesis and in vitro studies” (Eur J Med Chem, 2020)

Assays:
[1] = test system: KB; assay: Anticancer activity against human KB cells assessed as reduction in cell viability incubated for 72 hrs by MTT assay; format: functional, cell-based
[2] = test system: EJ; assay: Anticancer activity against human EJ cells assessed as reduction in cell viability incubated for 72 hrs by MTT assay; format: functional, cell-based
[3] = test system: SW480; assay: Anticancer activity against human SW480 cells assessed as reduction in cell viability incubated for 72 hrs by MTT assay; format: functional, cell-based; conditions: SW480, 72 h
[4] = test system: SK-MEL3; assay: Anticancer activity against human SK-MEL3 cells assessed as reduction in cell viability incubated for 72 hrs by MTT assay; format: functional, cell-based; conditions: SK-MEL3, 72 h
[5] = test system: A-431; assay: Anticancer activity against human A-431 cells assessed as reduction in cell viability incubated for 72 hrs by MTT assay; format: functional, cell-based; conditions: A-431, 72 h
[6] = test system: MCF7; assay: Anticancer activity against human MCF7 cells assessed as reduction in cell viability incubated for 72 hrs by MTT assay; format: functional, cell-based; conditions: MCF7, 72 h
[7] = test system: A549; assay: Anticancer activity against human A549 cells assessed as reduction in cell viability incubated for 72 hrs by MTT assay; format: functional, cell-based; conditions: A549, 72 h
[8] = test system: HL-60; assay: Anticancer activity against human HL-60 cells assessed as reduction in cell viability incubated for 72 hrs by MTT assay; format: functional, cell-based; conditions: HL-60, 72 h
[9] = test system: HeLa; assay: Anticancer activity against human HeLa cells assessed as reduction in cell viability incubated for 72 hrs by MTT assay; format: functional, cell-based
[10] = test system: L1210; assay: Cytotoxicity against mouse L1210 cells assessed as reduction in cell viability by MTT assay; format: functional, cell-based
[11] = test system: HL-60; assay: Cytotoxicity against human HL-60 cells assessed as reduction in cell viability by MTT assay; format: functional, cell-based
[12] = Cytotoxicity against Chinese hamster CHO cells assessed as reduction in cell viability by MTT assay; format: toxicity, cell-based, Cricetulus griseus
[13] = test system: Panel NCI-60 (60 carcinoma cell lines); assay: Anticancer activity against human Panel NCI-60 (60 carcinoma cell lines) cells assessed as cell growth inhibition incubated for 48 hrs by sulforhodamine B assay; format: functional
[14] = test system: A549; assay: Antitumor activity against human A549 cells assessed as reduction in cell viability incubated for 4 hrs by MTT assay; format: functional, cell-based; conditions: A549, 4 h
[15] = test system: CT26; assay: Antitumor activity against mouse CT26 cells assessed as reduction in cell viability incubated for 4 hrs by MTT assay; format: functional, cell-based; conditions: CT26, 4 h

## O=C(CN1CCN(c2cc3c(cc2F)c(=O)c(C(=O)O)cn3C2CC2)CC1)c1ccc(Cl)s1
[1]
  IC50: < 10 µM
[2]
  IC50: < 10 µM
[3]
  IC50: < 10 µM
[4]
  IC50: < 10 µM
[5]
  IC50: < 10 µM
[6]
  IC50: < 10 µM

## O=C(O)c1cn(C2CC2)c2cc(N3CCN(C/C(=N/OCc4ccccc4)c4ccc(Cl)s4)CC3)c(F)cc2c1=O
[1]
  IC50: < 10 µM
[2]
  IC50: < 10 µM
[3]
  IC50: < 10 µM
[4]
  IC50: < 10 µM
[5]
  IC50: < 10 µM
[6]
  IC50: < 10 µM

## CCn1cc(C(=O)O)c(=O)c2cc(F)c(N3CCN(C(=N)NS(=O)(=O)c4ccccc4Cl)CC3)cc21
[7]
  IC50: 0.071 µM
[8]
  IC50: 0.043 µM
[9]
  IC50: 0.032 µM

## O=C(N/N=C/c1ccc(F)cc1)c1cn(C2CC2)c2cc(N3CCNCC3)c(F)cc2c1=O
[10]
  IC50: 25 µM
[11]
  IC50: 25 µM
[12]
  IC50: 25 µM

## COc1ccc(/C=N/NC(=O)c2cn(C3CC3)c3cc(N4CCNCC4)c(F)cc3c2=O)cc1
[10]
  IC50: 25 µM
[11]
  IC50: 25 µM
[12]
  IC50: 25 µM

## N=C(NS(=O)(=O)c1ccccc1Cl)N1CCN(c2cc3c(cc2F)c(=O)c(C(=O)O)cn3C2CC2)CC1
[7]
  IC50: 0.071 µM
[8]
  IC50: 0.043 µM
[9]
  IC50: 0.032 µM

## CCn1cc(C(=O)O)c(=O)c2cc(F)c(N3CCNCC3)nc21 [ENOXACIN]
[1]
  IC50: > 128 µM
[2]
  IC50: > 128 µM
[3]
  IC50: > 128 µM
[4]
  IC50: > 128 µM
[5]
  IC50: > 128 µM
[6]
  IC50: > 128 µM

## CCn1cc(C(=O)O)c(=O)c2cc(F)c(N3CCN(C(=N)NS(=O)(=O)c4ccc(Cl)cc4)CC3)cc21
[7]
  IC50: 0.071 µM
[8]
  IC50: 0.043 µM
[9]
  IC50: 0.032 µM

## CCn1cc(C(=O)O)c(=O)c2cc(F)c(N3CCN(CC(=O)c4ccc(OC)cc4)CC3)c(F)c21
[13]
  GI50: 22 µM

## CCn1cc(C(=O)O)c(=O)c2cc(F)c(N3CCN(C(=N)NS(=O)(=O)c4ccc(C)cc4)CC3)cc21
[7]
  IC50: 0.071 µM
[8]
  IC50: 0.043 µM
[9]
  IC50: 0.032 µM

## CCn1cc(C(=O)O)c(=O)c2cc(F)c(N3CCN(S(=O)(=O)c4ccc(Cl)cc4)CC3)cc21
[13]
  GI50: 2.63 µM

## O=c1[nH]cc(F)c(=O)[nH]1 [FLUOROURACIL]
[13]
  GI50: 22.6 µM

## O=C(O)c1cn(C2CC2)c2cc(N3CCN(C/C(=N/O)c4ccc(Cl)s4)CC3)c(F)cc2c1=O
[1]
  IC50: < 10 µM
[2]
  IC50: < 10 µM
[3]
  IC50: < 10 µM
[4]
  IC50: < 10 µM
[5]
  IC50: < 10 µM
[6]
  IC50: < 10 µM

## Cc1cc(C)c(S(=O)(=O)N2CCN(c3cc4c(cc3F)c(=O)c(C(=O)O)cn4C3CC3)CC2)c(C)c1
[13]
  GI50: 2.63 µM

## CCn1cc(C(=O)O)c(=O)c2cc(F)c(N3CCN(C/C(=N/OCc4ccccc4)c4ccc(Cl)s4)CC3)cc21
[1]
  IC50: < 10 µM
[2]
  IC50: < 10 µM
[3]
  IC50: < 10 µM
[4]
  IC50: < 10 µM
[5]
  IC50: < 10 µM
[6]
  IC50: < 10 µM

## N=C(NS(=O)(=O)c1ccccc1)N1CCN(c2cc3c(cc2F)c(=O)c(C(=O)O)cn3C2CC2)CC1
[7]
  IC50: 0.071 µM
[8]
  IC50: 0.043 µM
[9]
  IC50: 0.032 µM

## CCn1cc(C(=O)O)c(=O)c2cc(F)c(N3CCN(CP(c4ccccc4)c4ccccc4)CC3)cc21
[14]
  IC50: 150 µM
[15]
  IC50: 150 µM

## C#Cc1cccc(Nc2ncnc3cc(OCCOC)c(OCCOC)cc23)c1 [ERLOTINIB]
[13]
  GI50: 7.29 µM

## CCn1cc(C(=O)O)c(=O)c2cc(F)c(N3CCN(CC(=O)c4ccccc4)CC3)cc21
[13]
  GI50: 22 µM

## Cc1ccc(S(=O)(=O)NC(=N)N2CCN(c3cc4c(cc3F)c(=O)c(C(=O)O)cn4C3CC3)CC2)cc1
[7]
  IC50: 0.071 µM
[8]
  IC50: 0.043 µM
[9]
  IC50: 0.032 µM

## O=C(N/N=C/c1ccccc1)c1cn(C2CC2)c2cc(N3CCNCC3)c(F)cc2c1=O
[10]
  IC50: 25 µM
[11]
  IC50: 25 µM
[12]
  IC50: 25 µM

## O=C(O)c1cn(C2CC2)c2cc(N3CCN(CP(=[Se])(c4ccccc4)c4ccccc4)CC3)c(F)cc2c1=O
[14]
  IC50: 150 µM
[15]
  IC50: 150 µM

## CCn1cc(C(=O)O)c(=O)c2cc(F)c(N3CCN(CC(=O)c4ccc(Cl)s4)CC3)nc21
[1]
  IC50: < 10 µM
[2]
  IC50: < 10 µM
[3]
  IC50: < 10 µM
[4]
  IC50: < 10 µM
[5]
  IC50: < 10 µM
[6]
  IC50: < 10 µM

## O=C(O)c1cn(C2CC2)c2cc(N3CCN(CP(=S)(c4ccccc4)c4ccccc4)CC3)c(F)cc2c1=O
[14]
  IC50: 150 µM
[15]
  IC50: 150 µM

## COc1cc(/C=N/NC(=O)c2cn(C3CC3)c3cc(N4CCNCC4)c(F)cc3c2=O)cc(OC)c1OC
[10]
  IC50: 25 µM
[11]
  IC50: 25 µM
[12]
  IC50: 25 µM

## CCn1cc(C(=O)O)c(=O)c2cc(F)c(N3CCN(CP(=[Se])(c4ccccc4)c4ccccc4)CC3)cc21
[14]
  IC50: 150 µM
[15]
  IC50: 150 µM
